“Also recorded” adds a separate entry of the source. Like-named read-outs stand apart in the source and are kept apart here.
Assays:
[1] = tested on: HDAC1, HDAC4, SIRT1, cyclin A2 (CCNA2); experiment: Western blot of protein deacetylases and cyclin A2 in HCT116 cells; assay type: cell-based
Experimental: HCT116 cells were transfected with either an miR-22 mimic or a scramble control, and 48 hours later the protein levels of HDAC4, SIRT1, and cyclin A2 were measured (FIG. 3B). The expression of all three proteins was reduced by treatment with the miR-22 mimic.
(§1) Western blot and immunoprecipitation were performed as described previously^22. Specific antibodies used included anti-NUR77, RARβ, SIRT1, β-actin, and IgG (Santa Cruz Biotechnology, Santa Cruz, Calif.), phospho-JNK1/2, total JNK1/2, cleaved caspase3, HDAC1 and HDAC4 (Cell Signaling Technology, Beverly, Mass.), and CCNA2 (Novus Biologicals, Littleton, Colo.). To detect protein acetylation of NUR77 and RARβ, cell lysates (500 μg) were incubated with anti-NUR77, RARβ, or IgG antibody (1 μg), precipitated by adding Dynabeads (30 μl, Life Technologies, Carlsbad, Calif.), and probed with anti-Acetyl-lysine antibody (Cell Signaling Technology, Beverly, Mass.). To study the interaction between RARβ and NUR77, whole-cell lysates were precipitated with anti-RARβ or NUR77 antibody followed by Western blot using anti-NUR77 or RARβ antibody.

miR-22 [2] = details: published data, cited from earlier work
[3] = tested on: CYCLIN A2, HDAC1, HDAC4, SIRT1; experiment: Protein levels in Huh7 liver cancer cells
NUR77 and RARβ = experiment: Immunoprecipitation/Western blot: protein acetylation of NUR77 and RARβ; assay type: cell-based; details: HCT116 cells; IP with anti-NUR77 or anti-RARβ, anti-acetyl lysine blot
Description: FIG. 12A depicts the expression levels of proteins that were extracted from HCT116 cells and immunoprecipitated by anti-NUR77 and RARβ antibodies or IgG, followed by Western blot using an anti-acetyl lysine antibody. […] The mRNA levels of NUR77 target genes BRE as well as CCND2 and RARβ target genes RARβ and CYP26A1 in HCT116 cells are shown in FIG. 12C.
NUR77 and RARβ acetylation status was also studied because protein acetylation alters nuclear receptor activity^37. […] To study the effect of RA/butyrate in modulating NUR77 and RARβ transcriptional activity, ChIP-qPCR and RT-PCR were performed to determine receptor binding to transcriptional regulatory regions and mRNA levels of downstream targets, respectively.
as §1

HCT116-generated tumors = experiment: Mouse xenograft tumor model; assay type: in vivo, Athymic nude mice; details: adenoviral miR-22 intratumorally
Experimental: Athymic nude mice (female, 6 weeks old, Jackson Laboratory) were subcutaneously injected by HCT116 cells (1×10^6) in the flank region. When tumor size reached […] of cross-sectional area, a combination of RA plus butyrate or adenoviral-expressing miR-22 (Ad-miR-22) was administered. For RA plus butyrate treatment, mice received RA (2.5 μg/g body weight) and butyrate (1.2 mg/g body weight) intraperitoneally (IP) 5 times a week for 2 weeks. For Ad-miR-22 treatment, mice received Ad-miR-22 (1×10^9 Pfu) intratumorally (IT) twice a week for 2 weeks. Control groups received 1% DMSO in PBS and adenovirus scramble, respectively. Tumor dimensions were measured and tumor volume was calculated using V (volume)=W (width)^2×L (length)/2. All experimental protocols were approved by the University of California Davis Animal Care and Use Committee.

[4] = tested on: HCT116 colon cancer cells; experiment: MTT cell viability assay in HCT116 cells; assay type: cell-based; details: 48 hours, RA 10 μM, butyrate 5 mM, propionate 10 mM, valerate 10 mM, SAHA 5 μM, vs. DMSO
Experimental: Cell viability was monitored by MTT assay.
HCT116 cells (American Type Culture Collection) were maintained in McCoy's 5a medium from Gibco (Life Technologies, Carlsbad, Calif.) with 10% FBS. Cells were plated (1×10^6 cells per 60-mm dish, 2×10^5 cells per 6-well plates, and 1×10^5 cells per 24-well plates) overnight prior to treatment or transfection.
Cells were stained with 3-(4,5-dimethylthiazol-2-O-2,5-diphenyltetrazolium bromide (MTT, Sigma-Aldrich, St. Louis, Mo.) and measured at 570 nm with Microplate Reader (Biotek, Winooski, Vt.).

miR-22 [5] = experiment: miR-22 expression in HCT116 cells (qRT-PCR); assay type: cell-based; details: 24 hours, RA 10 μM, butyrate 5 mM, propionate 10 mM, valerate 10 mM, SAHA 5 μM
Experimental: To study the effect of RA and HDAC inhibitors on miR-22 expression, HCT116 cells were treated with RA, butyrate, propionate, valerate, and SAHA. The SCFA concentrations used were within physiologic ranges^35.
Total RNA was extracted with TRIzol Reagent (Invitrogen, Carlsbad, Calif.), and cDNA was generated using High Capacity RNA-to-cDNA Kit (Applied Biosystems, Carlsbad, Calif.). qRT-PCR was performed on ABI 7900HT Fast Real time PCR system using Power SYBR® Green PCR Master Mix (Applied Biosystems, Carlsbad, Calif.).

C[C@H](CCC(=O)O)[C@H]1CC[C@H]2[C@@H]3[C@H](O)C[C@@H]4C[C@H](O)CC[C@]4(C)[C@H]3CC[C@]12C [CDCA, chenodeoxycholic acid]
CYCLIN A2 levels ([1]; colon HCT116 cells, CDCA treatment or miR-22 mimic transfection): reduced CYCLIN A2 levels; also recorded: repression of cyclin A2
miR-22 induction (miR-22 [2]): induces miR-22
miR-22 induction (miR-22 [2]; listed as chenodeoxycholic acid): induce miR-22
CYCLIN A2 levels ([3]; liver Huh7 cells): reduced CYCLIN A2 levels; also recorded: repression of cyclin A2

miR-22: microRNA, SEQ ID NO:1 AAGCUGCCAGUUGAAGAACUGU (listed as RNA, chemistry not fully specified)
Protein levels of HDAC1, HDAC4, SIRT1, cyclin A2 after miR-22 (mimic) transfection ([1]; HCT116 cells, 48 hours after transfection, vs. scramble control): inhibited multiple HDACs; also recorded: inhibits HDAC1, HDAC4 and SIRT1; also recorded: HDAC1 protein level was reduced; also recorded: reduced HDAC4 and SIRT1; also recorded: suppress HDAC4 and SIRT1 expression; also recorded: reduces protein deacetylases, including HDAC1
HDAC1, HDAC4, and SIRT1 levels ([3]; liver Huh7 cells treated with miR-22 mimic): inhibited multiple HDACs
Acetylated NUR77 and RARβ (NUR77 and RARβ): increased acetylated NUR77 and RARβ
HDACs and CCNA2 protein levels in tumors (HCT116-generated tumors): silenced HDACs and CCNA2
NUR77 and RARβ protein levels in tumors (HCT116-generated tumors): upregulating NUR77 and RARβ
Colon tumor growth / tumor size (HCT116-generated tumors; xenograft mice): inhibited colon cancer growth; also recorded: effective in inhibiting the growth of colon cancer; also recorded: remarkable effectiveness

CCCCC(=O)O [valerate]
Cell viability [4]: Markedly reduced cell viability
miR-22 expression level (miR-22 [5]): induced; also recorded: increased miR-22 level

CCC(=O)[O-].[Na+] [propionate, sodium propionate]
Cell viability [4]: Markedly reduced cell viability
miR-22 expression level (miR-22 [5]): induced; also recorded: increased miR-22 level

C=C1CC[C@H](O)C/C1=C/C=C1\CCC[C@]2(C)[C@@H]([C@H](C)CCCC(C)C)CC[C@@H]12 [vitamin D3]
miR-22 induction (miR-22 [2]): induce miR-22

— patent publication US20190307771A1, “METHODS AND COMPOSITIONS FOR THE TREATMENT OF CANCER AND METABOLIC DISEASES” (THE REGENTS OF THE UNIVERSITY OF CALIFORNIA, priority 2016, published 2019)
